From the supplement of paper PMC10307832

How the values were obtained:
Experiment in all cases: relative viability (nuclei count vs DMSO), 5 days (fraction); higher = more cells survive
[1] = compound: O=C(O)c1ccc2c(c1)nc(Nc1cccc(Cl)c1)c1ccncc12 [Silmitasertib] + C[C@]1(O)C[C@@H](c2nc(-c3ccc4ccc(-c5ccccc5)nc4c3)c3c(N)nccn32)C1 [Linsitinib] (partner 1 µM)
How it was run: (§1)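 The day after seeding in 1536-well plates, lung cancer cell lines were treated by pin tool with a single drug, or with a fixed anchor-drug dose together with five library-drug doses (not always all listed) in √10 steps. After 5 days, a combined fix-and-stain solution (final 0.05% Triton X-100, 1% formaldehyde, 1 ug/ml Hoechst) was added. Nuclei counted on 4× images gave relative viability as treated counts over vehicle counts, reported as the median of duplicate plates.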

[2] = compound: O=C(O)c1ccc2c(c1)nc(Nc1cccc(Cl)c1)c1ccncc12 [Silmitasertib] + Cc1nc(NC(=O)N2CCC[C@H]2C(N)=O)sc1-c1ccnc(C(C)(C)C(F)(F)F)c1 [Alpelisib] (partner 2 µM)
How it was run: as §1

[3] = compound: O=C(O)c1ccc2c(c1)nc(Nc1cccc(Cl)c1)c1ccncc12 [Silmitasertib] + C[C@@H](Oc1cc(-c2cnn(C3CCNCC3)c2)cnc1N)c1c(Cl)ccc(F)c1Cl [Crizotinib] (partner 1 µM)
How it was run: as §1

[4] = compound: O=C(O)c1ccc2c(c1)nc(Nc1cccc(Cl)c1)c1ccncc12 [Silmitasertib] + CC(C)C[C@H](NC(=O)[C@H](Cc1ccccc1)NC(=O)c1cnccn1)B(O)O [Bortezomib] (partner 0.002 µM)
How it was run: as §1

[5] = compound: O=C(O)c1ccc2c(c1)nc(Nc1cccc(Cl)c1)c1ccncc12 [Silmitasertib] + CS(=O)(=O)N1CCN(Cc2cc3nc(-c4cccc5[nH]ncc45)nc(N4CCOCC4)c3s2)CC1 [Pictilisib] (partner 1 µM)
How it was run: as §1

Cell Line	relative viability ([1]; first compound 0.04 µM)	relative viability ([1]; first compound 1.265 µM)	relative viability ([1]; first compound 4 µM)	relative viability ([2]; first compound 0.04 µM)	relative viability ([2]; first compound 1.265 µM)	relative viability ([2]; first compound 4 µM)	relative viability ([3]; first compound 0.04 µM)	relative viability ([3]; first compound 1.265 µM)	relative viability ([3]; first compound 4 µM)	relative viability ([4]; first compound 0.04 µM)	relative viability ([4]; first compound 1.265 µM)	relative viability ([4]; first compound 4 µM)	relative viability ([5]; first compound 0.04 µM)	relative viability ([5]; first compound 1.265 µM)	relative viability ([5]; first compound 4 µM)	relative viability ([1]; first compound 0.4 µM)	relative viability ([2]; first compound 0.4 µM)	relative viability ([3]; first compound 0.4 µM)	relative viability ([4]; first compound 0.4 µM)	relative viability ([5]; first compound 0.4 µM)
NCI-H441	0.455	0.389	0.35	0.746	0.634	0.41	0.814	0.787	0.6	0.514	0.496	0.17	0.469	0.285	0.315					
NCI-H460	0.779	0.782	0.899	0.488	0.466	0.421	0.91	0.755	0.865	1.22	1.09	1.15	0.424	0.314	0.3	0.84	0.512	0.866	0.967	0.412
NCI-H520	1.05	1.04	0.785	0.932	1.16	0.832	0.821	0.792	0.612	0.622	0.389	0.422	0.263	0.258	0.224	1.17	1.01	0.728	0.515	0.298
NCI-H596	1.09	0.839	0.933	0.47	0.382	0.444	1.01	0.909	0.964	1	1.02	0.751	0.393	0.36	0.336	1.07	0.429	1.01	0.818	0.384
NCI-H647	1.37	1.05	0.663	1.37	0.688	0.465	1.26	0.932	0.48	1.12	0.705	0.343	0.546	0.33	0.153	1.24	1.09	1.1	0.866	0.462
NCI-H650	0.96	0.757	0.407	1.16	1.09	0.99	0.79	0.463	0.378	0.996	0.614	0.345	1.08	0.614	0.75	0.563	0.648	0.502	0.515	0.817
NCI-H661	0.646	0.38	0.577	0.784	0.547	0.338	1.02		1.1	0.852	0.734	1.1	0.461	0.243	0.271			0.929		0.298
NCI-H727	0.327	0.303	0.166	0.611	0.493	0.297	0.868	0.753	0.485	1	0.736	0.516	0.608	0.381	0.32	0.287	0.506	0.65	0.608	0.392
NCI-H838	1.09	0.899	0.608	1.05	0.967	0.556	0.941	0.861	0.511	1.15	0.759	0.66	0.463	0.434	0.359					
NCI-H1355	0.857	0.768	0.796	0.911	0.721	0.766	1.07	1.1	1.07	1.27	1.16	0.929	0.419	0.367	0.293					
NCI-H1437	1.03	0.691	0.36	0.976	0.741	0.498	0.916	0.865	0.778	0.594	0.384	0.474	0.42	0.261	0.217					
NCI-H1563	1.32	1.17	1.16	0.922	0.923	0.92	0.88	0.856	0.857	0.932	0.844	0.821	0.62	0.68	0.578	1.22	0.734	0.822	0.903	0.679
NCI-H1651	0.944	0.901	0.942	0.951	0.952	0.86	0.88	0.834	0.924	0.957	1.02	0.934	0.615	0.669	0.543	1	1.03	0.727	0.894	0.657
NCI-H1666	0.919	0.682	0.536	1.03	0.61	0.505	0.918	0.691	0.508	1.01	0.5	0.468	0.465	0.321	0.307	0.571	0.781	0.787	0.702	0.499
NCI-H1703	1.04	1.23	0.419	0.334	0.392	0.452	0.954	0.787	0.392	0.352	0.294	0.193	0.25	0.228	0.252	0.654	0.312	0.596	0.278	0.291
NCI-H1734	0.884	0.801	0.929	0.688	0.649	0.66	0.628	0.606	0.655	0.911	0.827	0.841	0.514	0.424	0.313					
NCI-H1755	1.02	1.06	1.13	0.981	0.908	0.987	0.89	0.929	0.924	0.91	0.95	0.945	0.431	0.441	0.375	1.04	0.912	0.837	0.905	0.441

Cell Line	relative viability ([1]; first compound 0.04 µM)	relative viability ([1]; first compound 1.265 µM)	relative viability ([1]; first compound 4 µM)	relative viability ([2]; first compound 0.04 µM)	relative viability ([2]; first compound 1.265 µM)	relative viability ([2]; first compound 4 µM)	relative viability ([3]; first compound 0.04 µM)	relative viability ([3]; first compound 1.265 µM)	relative viability ([3]; first compound 4 µM)	relative viability ([4]; first compound 0.04 µM)	relative viability ([4]; first compound 1.265 µM)	relative viability ([4]; first compound 4 µM)	relative viability ([5]; first compound 0.04 µM)	relative viability ([5]; first compound 1.265 µM)	relative viability ([5]; first compound 4 µM)	relative viability ([1]; first compound 0.4 µM)	relative viability ([2]; first compound 0.4 µM)	relative viability ([3]; first compound 0.4 µM)	relative viability ([4]; first compound 0.4 µM)	relative viability ([5]; first compound 0.4 µM)
NCI-H1792	0.531	0.48	0.539	0.671	0.683	0.727	0.948	0.735	0.882	0.943	0.53	0.864	0.28	0.283	0.286	0.439	0.595	0.764	0.68	0.294
NCI-H1915	1.13	1.18	0.956	1.05	1.14	0.885	0.888	0.931	0.718	1.01	1.02	0.424	1.02	0.956	0.408					
NCI-H1975	1.07	0.878	0.686	0.683	0.589	0.468	0.954	0.929	0.816	0.349	0.423	0.331	0.313	0.207	0.208	0.842	0.532	0.795	0.283	0.25
NCI-H1993	0.597	0.695	0.758	0.662	0.617	0.688	0.956	0.803	0.644	1.33	0.995	0.745	0.818	0.854	0.916	0.747	0.602	0.899	0.857	0.818
NCI-H2009	1.27	1.16	0.77	1.17	1.03	0.707	1.09	1.1	0.97	1.14	0.944	0.463	1.07	0.427	0.244	1.2	1.03	1.04	0.545	0.701
NCI-H2023	0.741	0.532	0.472	0.684	0.599	0.399	0.663	0.513	0.542	1.13	0.946	0.282	0.275	0.194	0.179	0.62	0.522	0.585	0.557	0.275
NCI-H2085	0.95	0.828	0.806	1.02	0.81	0.878	0.871	0.806	0.77	1.19	0.873	0.889	0.474	0.453	0.457	0.8	0.806	0.777	0.614	0.547
NCI-H2087	0.991	0.608	0.408	1.08	0.76	0.386	0.88	0.853	0.428	0.737	0.657	0.421	0.997	0.577	0.347	0.75	0.811	0.793	0.656	0.513
NCI-H2126	0.722	0.626	0.585	0.72	0.727	0.704	1.02	0.99	1.12	1.08	1.08	1.05	0.512	0.45	0.454	0.737	0.667	0.996	0.98	0.508
NCI-H2228	0.787	0.786	0.628	0.785	0.821	0.808	0.497	0.449	0.374	1.46	0.912	1.13	0.505	0.367	0.305	0.548	0.821	0.495	0.92	0.312
NCI-H2347	1.01	0.967	0.848	1.07	0.93	0.904	0.792	0.725	0.567	1.27	0.881	0.652	0.739	0.665	0.82	0.952	0.854	0.683	0.593	0.829
NCI-H2405	1.16	0.856	0.887	0.935	0.639	0.775	0.822	0.745	0.803	0.936	0.874	0.904	0.586	0.379	0.28	0.783	0.688	0.692	0.792	0.388
NCI-H3122	0.957	0.948	1.15	0.784	0.902	0.969	0.305	0.256	0.262	1.11	1.03	1.12	0.694	0.634	0.644	0.953	0.726	0.262	0.935	0.53
PC-3 [JPC-3]	0.98	1.03	0.986	1.02	1.01	1	0.968	1.03	0.999	0.892	0.891	0.826	0.837	0.586	0.708	0.964	0.79	0.868	0.699	0.672
PC-14	0.966	1.01	0.993	0.968	0.924	0.939	0.932	0.888	0.847	0.946	0.871	0.819	0.629	0.566	0.646	0.999	0.942	0.897	0.788	0.661
RERF-LC-KJ	0.858	0.689	0.672	0.929	0.66	0.51	0.77	0.736	0.711	1.15	0.779	0.574	0.629	0.366	0.323	0.876	0.797	0.817	0.95	0.494
